We go through 15 molecules from patent US20120130129A1, “Efficient Method for Preparing Functionalized Benzosuberenes” (BAYLOR UNIVERSITY, priority 2010, published 2012).

Like-named read-outs stand apart in the source and are kept apart here.

For orientation: IC50 means the point on the concentration scale where inhibition reaches its midpoint. Low values mean greater potency in that assay, high ones weaker potency in that assay. The GI50 is the concentration that inhibits growth by half.

The subject of one data set is Bovine brain tubulin. In words: Inhibition of tubulin polymerization (turbidimetric tubulin assembly). The conditions noted are these: for IC50: 10 μM tubulin, 20 min incubation, 30° C.; for Inhibition of tubulin assembly (in words): comparable to CA1, CA4. In kind it is biochemical. How it is done: Bovine brain tubulin was purified using methods previously described by Hamel (Cell Biochem. Biophys. 38:1-21 (2003)). The effect of compounds on tubulin assembly in vitro was determined by using a series of concentrations that were pre-incubated with 10 μM tubulin (1.0 mg/mL) in glutamate buffer at 30° C., followed by cooling to 0° C. After GTP was added, the samples were mixed and transferred to cuvettes at 0° C. in a recording spectrophotometer and warmed to 30° C. to initiate polymerization. Tubulin assembly was observed turbidimetrically at 350 nm. Tubulin disassembly was confirmed by cooling to 0° C. The calculated compound concentration that inhibited tubulin assembly by 50% after a 20 min incubation was defined as the IC50 value.

Data set [1] concerns NCI-H460 (lung). Kind of data set: Sulforhodamine B (SRB) growth inhibition assay. The conditions noted are these: for GI50: Homo sapiens, NCI-H460, read-out: Cytotoxicity (GI50) NCI-H460.
Source text: (§1) Cancer cell lines were obtained from ATCC (DU-145 (prostate), SK-OV-3 (ovarian), and NCI-H460 (lung)) and maintained according to recommended conditions. Media was enriched with the recommended concentration of fetal bovine serum, as well as gentamicin and amphotericin B. The National Cancer Institute's standard SRB assay assessed cancer cell line growth inhibition, as previously described as the GI50, or the drug concentrations calculated to cause a 50% reduction in net protein increase relative to untreated cells (Vichai and Kirtikara, Nat. Protocols 1:1112-1116 (2006); Monks, et al., J. Natl. Cancer Inst. 83″757-766 (1991); Sites, et al., J. Nat. Prod. 71:313-320 (2008)). Results reported are averages of at least three separate experiments, each of which was carried out in triplicate.
Data set [2] deals with human cancer cell lines. Kind of data set: Cytotoxicity against human cancer cell lines (SRB assay, whole panel). In kind it is cell-based. The conditions noted are these: each cell line of Table 2.
Source text: as §1
For data set [3], the system named is DU-145 (prostate). In words: Sulforhodamine B (SRB) growth inhibition assay. The conditions noted are these: for GI50: Homo sapiens, DU-145, read-out: Cytotoxicity (GI50) DU-145.
Source text: as §1
Data set [4] has as its system SK-OV-3 (ovarian). Kind of data set: Sulforhodamine B (SRB) growth inhibition assay. The conditions noted are these: Homo sapiens.
Source text: as §1
Data set [5] relates to DU-145 (prostate).
Source text: as §1
In data set [6] the test system is NCI-H460 (lung).
Source text: as §1
In data set [7] the test system is SK-OV-3 (ovarian).
Source text: as §1
Data set [8] relates to human cancer cell lines. The conditions noted are these: previous studies, U.S. Pat. No. 7,429,681; cited from earlier work.
Where [9] appears, read: SK-OV-3, read-out: Cytotoxicity (GI50) SK-OV-3.

In turn, `COc1ccc(/C=C\c2cc(OC)c(OC)c(OC)c2)c(O)c1O` [CA1, Combretastatin A-1, reference compound] came in with an IC50 with Bovine brain tubulin of 1900 nM.
On to `COc1cc(C2=CCCCc3c2ccc(OC)c3[N+](=O)[O-])cc(OC)c1OC` [Compound 5, 1-Nitro-2-Methoxy-5-(3′,4′,5′-trimethoxyphenyl)-6,7,8,9-tetrahydro-5H-cyclobenzohepta-6-ene], for which the GI50 in the data set with NCI-H460 (lung) [1] was found to be 666 nM; in the data set on DU-145 (prostate) [3], 211 nM; in the data set on SK-OV-3 (ovarian) [4] (setting [9]), 152 nM. The “Cytotoxicity compared with comparison compounds (in words)” value with human cancer cell lines [2] is listed as “significantly less cytotoxic than any of the comparison compounds”. This molecule came in with an IC50 with Bovine brain tubulin of 2500 nM. Also, the “Inhibition of tubulin assembly (in words)” value (“Inhibition” below) in the data set on Bovine brain tubulin is given as “potent inhibitors of tubulin assembly”.
Consider `COc1ccc2c(c1N)CCCC=C2c1cc(OC)c(OC)c(OC)c1` [Compound 6, 2-Methoxy-5-(3′,4′,5′-trimethoxyphenyl)-6,7,8,9-tetrahydro-5H-cyclobenzohepta-6-ene-1-amine], for which the concentration for 50% growth inhibition (GI50) in the data set with NCI-H460 (lung) [1] is 4.69 nM; with DU-145 (prostate) [3] it was 1.11 nM; with SK-OV-3 (ovarian) [4] (setting [9]), 0.0329 nM; with SK-OV-3 (ovarian) [4] (SK-OV-3, read-out: GI50 against ovarian cancer) it was 0.0329 nM. Also, the “Cytotoxicity (in words)” value in the data set on NCI-H460 (lung) [1] (non-small cell lung cell line) and with DU-145 (prostate) [3] (prostate cell line) was “strongly cytotoxic” in each case. For the same molecule, the “Cytotoxicity compared with comparison compounds (in words)” value in the data set on human cancer cell lines [2] was “more active against each cell line than the natural products CA4 and CA1”. This molecule came in with a half-inhibitory concentration (IC50) in the data set on Bovine brain tubulin of 1200 nM. Further, the “Inhibition” value in the data set on Bovine brain tubulin is reported as “potent inhibitors of tubulin assembly”.
As to `COc1cc2c(c(O)c1O)CCCC=C2c1cc(OC)c(OC)c(OC)c1` [Compound 13, 3-Methoxy-5-(3′,4′,5′-trimethoxyphenyl)-6,7,8,9-tetrahydro-5H-cyclobenzohepta-6-ene-1,2-diol], the GI50 in the data set with DU-145 (prostate) [5] worked out at 20500 nM; with NCI-H460 (lung) [6] it was 20900 nM; in the data set on SK-OV-3 (ovarian) [7] it was 22700 nM.
The matching figures for `COc1cc2c(c(OC)c1O)CCCC=C2c1cc(OC)c(OC)c(OC)c1` [Compound 16, 1,3-Dimethoxy-5-(3′,4′,5′-trimethoxyphenyl)-6,7,8,9-tetrahydro-5H-cyclobenzohepta-6-ene-2-ol]: 15700 nM, 18000 nM and 7130 nM.
Regarding `COc1ccc2c(c1O)CCCC=C2c1cc(OC)c(OC)c(OC)c1` [Compound 23, 2-Methoxy-5-(3′,4′,5′-trimethoxyphenyl)-6,7,8,9-tetrahydro-5H-cyclobenzohepta-6-ene-1-ol], the concentration for 50% growth inhibition (GI50) with NCI-H460 (lung) [1] was 0.00192 nM; with DU-145 (prostate) [3] it was 0.00242 nM; with SK-OV-3 (ovarian) [4] (setting [9]) it was 0.0242 nM. The “Cytotoxicity against human cancer cell lines (in words)” value in the data set on human cancer cell lines [8] is listed as “picomolar cytotoxicity”. Moreover, in the data set on Bovine brain tubulin, the IC50 amounted to 1700 nM. Moreover, the “Inhibition” value in the data set with Bovine brain tubulin is reported as “potent inhibitors of tubulin assembly”.
Take `COc1cc(C2=CCCCc3c2ccc(OC)c3OP(=O)(O)O)cc(OC)c1OC` [Compound 24, Disodium 2-Methoxy-5-(3′,4′,5′-trimethoxyphenyl)-6,7,8,9-tetrahydro-5H-cyclobenzohepta-6-ene-1-phosphate]: the GI50 with DU-145 (prostate) [5] was found to be 9.66 nM; with NCI-H460 (lung) [6], 26.6 nM; in the data set on SK-OV-3 (ovarian) [7], 5.94 nM.
The matching figures for `COc1cc(C2=CCCCc3c2cc(OC)c(OC)c3O)cc(OC)c1OC` [Compound 36, 1-Hydroxy-2,3-dimethoxy-5-(3′,4′,5′-trimethoxyphenyl)-6,7,8,9-tetrahydro-5H-cyclobenzoheptan-5-ene]: 16300 nM, 25900 nM and 18100 nM.
The matching figures for `COc1ccc2c(c1F)CCCC=C2c1cc(OC)c(OC)c(OC)c1` [Compound 41, 1-Fluoro-2-methoxy-5-(3′,4′,5′-trimethoxyphenyl)-6,7,8,9-tetrahydro-5H-cyclobenzoheptan-5-ene]: 2.87 nM, 4 nM and 0.00724 nM.
Taken in the same sequence, the figures for `COc1ccc2c(c1Cl)CCCC=C2c1cc(OC)c(OC)c(OC)c1` [Compound 46, 1-Chloro-2-methoxy-5-(3′,4′,5′-trimethoxyphenyl)-6,7,8,9-tetrahydro-5H-cyclobenzoheptan-5-ene] were 108 nM, 83.2 nM and 39.9 nM.
As to `COc1ccc2c(c1)CCCC=C2c1cc(OC)c(OC)c(OC)c1` [Compound 50, 2-Methoxy-5-(3′,4′,5′-trimethoxyphenyl)-6,7,8,9-tetrahydro-5H-cyclobenzoheptan-5-ene], the 50% growth inhibitory concentration (GI50) with DU-145 (prostate) [5] was determined as 26.1 nM; in the data set with NCI-H460 (lung) [6] it was 51 nM; with SK-OV-3 (ovarian) [7] it was 36.6 nM.
Taken in the same sequence, the figures for `COc1cc(C2=CCCCc3c2ccc(OC)c3OC)cc(OC)c1OC` [Compound 58, 1,2-Dimethoxy-5-(3′,4′,5′-trimethoxyphenyl)-6,7,8,9-tetrahydro-5H-cyclobenzohepta-6-ene] were 516 nM, 479 nM and 641 nM.
Taken in the same sequence, the figures for `COc1cc(C2(O)CCCCc3c2ccc(O)c3O)cc(OC)c1OC` (stereo not shown) [Compound 63, 1,2-Dihydroxy-5-(3′,4′,5′-trimethoxyphenyl)-6,7,8,9-tetrahydro-5H-cyclobenzoheptan-5-ol] were 783 nM, 410 nM and 341 nM.
As to `COc1cc(C2=CCCCc3ccccc32)cc(OC)c1OC` [Compound 65, 5-(3′,4′,5′-trimethoxyphenyl)-6,7,8,9-tetrahydro-5H-cyclobenzohepta-5-ene], the GI50 in the data set with DU-145 (prostate) [5] is 22000 nM; with NCI-H460 (lung) [6] it was 32500 nM; in the data set on SK-OV-3 (ovarian) [7] it was 19100 nM.
For the molecule `COc1cc(C2=CCCCc3c2ccc(OC)c3O)cc(OC)c1O` [Compound 71, 9-(4′-Hydroxy-3′,5′-dimethoxyphenyl)-3-methoxy-6,7-dihydro-5H-benzo[7]annulen-4-ol], the GI50 is 439 nM with NCI-H460 (lung) [1], 579 nM in the data set with DU-145 (prostate) [3] and 378 nM with SK-OV-3 (ovarian) [4] (setting [9]).
